# From patent US7618630B2, “Methods of treating multiple myeloma and myeloma-induced bone resorption using integrin antagonists” (Board of Regents, The University of Texas System, priority 1998, dated 2009)
# Entries after “also recorded” stand apart in the source; their conditions may differ.
# Legend:
# [1] = system: 5TGM1 mouse myeloma cells; assay: α4Ab and melphalan in 5TGM1-inoculated xid-nu-bg mice; type: in vivo
# Procedure: Here, we studied the effects of a neutralizing antibody to α4 integrin (α4Ab), which disrupts stromal cells/myeloma cell interactions, on the sensitivity of myeloma to melphalan, a most widely-used chemotherapeutic agent for myeloma, using the 5TGM1 mouse myeloma cells that reproducibly cause extensive osteolysis in tumor-bearing animals. The α4Ab (100-200 μg/mouse, i.p., 2 or 3 times a week) and melphalan (50, 100, 200 μg/mouse, i.p., once a week) were administered following inoculation of 5TGM1 cells in the tail vein in male xid-nu-bg mice.
# 5TGM1 myeloma cells [2] = assay: Combined effects of melphalan and anti-alpha 4 integrin Ab in 5TGM1 model (scid/nu/bg mice, day 28); type: in vivo; conditions: mAb 200 μg first week then 100 μg, melphalan three times
# Procedure: In one particular set of experiments on the combined effects of melphalan and anti-alpha 4 integrin Ab in 5TGM1 model, as shown in an experimental protocol in FIG. 7, an initial high dose of 200 μg mAb was given during the first week, followed by a maintenance dose of 100 μg. Melphalan was given three times. Animals (scid/nu/bg mice) were sacrificed at day 28 and serum IgG2b levels (a surrogate marker of tumor burden) and tumor burden in bone were measured (histomorphometric analysis of bones). […] The data were a summary of two experiments combined.
# 5TGM1 myeloma cells [3] = assay: Survival by onset of hindleg paralysis of 5TGM1-bearing mice, melphalan and PS/2 mAb; type: in vivo, scid/nu/bg mice
# Procedure: We also examined the effects of the combined administration of melphalan (100 μg/mouse) and PS/2 mAb on survival of 5TGM1-bearing mice (scid/nu/bg mice). We evaluated survival by the onset of hindleg paralysis (i.e., the onset of hindleg paralysis was the end-point in these experiments). […] Thus, we can reduce the dose of Melphalan to a quarter in the presence of the anti-α4Ab, as compared to melphalan alone.
# GFP+ 5TGM1 myeloma cells = assay: Combination treatment with PS/2 and melphalan in C57BL/KaLwRij model of multiple myeloma; type: in vivo, C57BL/KaLwRij mice; conditions: day 27
# Source text: Additive/synergistic effects of the combination of PS/2 mAb and melphalan were seen under most conditions. In these experiments, the 5TGM1 cells injected into the animals were transfected with an expression vector containing the GFP gene. These myeloma cells expressed the GFP protein, allowing the myeloma cells to be tracked directly as GFP+ myeloma cells. These myeloma cells could also be tracked as mIgG2b positive cells. The data were only useful on day 27.
# VLA-4 and VLA-5 = conditions: cited from earlier work
# VLA-4 = VLA-4 (Homo sapiens, UniProt P05556+P13612); conditions: cited from earlier work
# Sequence of VLA-4 (P13612 34-1032): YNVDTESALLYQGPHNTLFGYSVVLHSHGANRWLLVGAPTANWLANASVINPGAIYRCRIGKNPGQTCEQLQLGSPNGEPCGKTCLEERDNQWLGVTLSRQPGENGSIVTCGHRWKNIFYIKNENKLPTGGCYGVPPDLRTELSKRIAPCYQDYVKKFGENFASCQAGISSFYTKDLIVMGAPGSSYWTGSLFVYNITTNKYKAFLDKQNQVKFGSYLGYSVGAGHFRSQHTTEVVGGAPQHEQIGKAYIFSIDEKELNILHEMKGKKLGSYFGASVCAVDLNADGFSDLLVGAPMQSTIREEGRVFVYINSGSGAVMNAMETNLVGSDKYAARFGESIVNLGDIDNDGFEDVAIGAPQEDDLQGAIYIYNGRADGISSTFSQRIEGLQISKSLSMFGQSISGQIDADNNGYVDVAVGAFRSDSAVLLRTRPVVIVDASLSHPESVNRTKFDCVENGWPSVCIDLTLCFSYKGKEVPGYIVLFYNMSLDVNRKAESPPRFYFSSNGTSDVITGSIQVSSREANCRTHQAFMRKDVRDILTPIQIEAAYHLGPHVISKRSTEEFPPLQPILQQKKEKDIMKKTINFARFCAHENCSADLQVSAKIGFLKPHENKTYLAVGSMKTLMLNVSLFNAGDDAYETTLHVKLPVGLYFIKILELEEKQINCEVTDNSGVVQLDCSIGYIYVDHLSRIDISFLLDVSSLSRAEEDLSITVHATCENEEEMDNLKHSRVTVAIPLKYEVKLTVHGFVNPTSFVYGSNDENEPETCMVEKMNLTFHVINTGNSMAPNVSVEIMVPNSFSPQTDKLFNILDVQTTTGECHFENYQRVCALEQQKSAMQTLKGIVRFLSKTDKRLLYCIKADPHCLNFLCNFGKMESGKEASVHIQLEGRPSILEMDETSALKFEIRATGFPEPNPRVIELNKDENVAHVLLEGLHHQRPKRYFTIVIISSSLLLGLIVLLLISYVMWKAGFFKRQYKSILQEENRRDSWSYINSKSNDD
# Sequence of VLA-4 (P05556 21-798): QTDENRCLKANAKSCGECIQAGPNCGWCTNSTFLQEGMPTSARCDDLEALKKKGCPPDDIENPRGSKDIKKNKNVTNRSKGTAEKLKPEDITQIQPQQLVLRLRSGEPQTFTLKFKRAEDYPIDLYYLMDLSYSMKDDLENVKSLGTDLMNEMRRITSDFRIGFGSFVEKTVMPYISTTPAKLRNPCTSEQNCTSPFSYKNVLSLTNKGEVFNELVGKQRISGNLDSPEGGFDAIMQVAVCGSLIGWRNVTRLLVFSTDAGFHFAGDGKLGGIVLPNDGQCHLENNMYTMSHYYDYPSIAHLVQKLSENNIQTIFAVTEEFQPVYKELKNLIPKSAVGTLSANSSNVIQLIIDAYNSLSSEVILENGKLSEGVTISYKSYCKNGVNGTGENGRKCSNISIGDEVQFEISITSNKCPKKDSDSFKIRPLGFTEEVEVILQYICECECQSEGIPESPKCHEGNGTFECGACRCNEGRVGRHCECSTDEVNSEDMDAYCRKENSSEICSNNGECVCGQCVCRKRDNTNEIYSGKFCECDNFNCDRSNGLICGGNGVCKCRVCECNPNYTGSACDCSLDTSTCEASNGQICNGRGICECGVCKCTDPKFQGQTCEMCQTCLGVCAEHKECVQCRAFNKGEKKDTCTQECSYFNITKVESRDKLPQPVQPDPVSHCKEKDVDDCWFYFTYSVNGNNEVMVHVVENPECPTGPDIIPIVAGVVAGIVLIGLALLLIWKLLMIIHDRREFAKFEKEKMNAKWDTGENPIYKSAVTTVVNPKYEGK
# [4] = target: VCAM-1 expressed on ST2 mouse bone marrow stromal cells (murine) (UniProt P29533); assay: cell-based or functional assay
# Sequence of VCAM-1 expressed on ST2 mouse bone marrow stromal cells (murine) (P29533 25-739): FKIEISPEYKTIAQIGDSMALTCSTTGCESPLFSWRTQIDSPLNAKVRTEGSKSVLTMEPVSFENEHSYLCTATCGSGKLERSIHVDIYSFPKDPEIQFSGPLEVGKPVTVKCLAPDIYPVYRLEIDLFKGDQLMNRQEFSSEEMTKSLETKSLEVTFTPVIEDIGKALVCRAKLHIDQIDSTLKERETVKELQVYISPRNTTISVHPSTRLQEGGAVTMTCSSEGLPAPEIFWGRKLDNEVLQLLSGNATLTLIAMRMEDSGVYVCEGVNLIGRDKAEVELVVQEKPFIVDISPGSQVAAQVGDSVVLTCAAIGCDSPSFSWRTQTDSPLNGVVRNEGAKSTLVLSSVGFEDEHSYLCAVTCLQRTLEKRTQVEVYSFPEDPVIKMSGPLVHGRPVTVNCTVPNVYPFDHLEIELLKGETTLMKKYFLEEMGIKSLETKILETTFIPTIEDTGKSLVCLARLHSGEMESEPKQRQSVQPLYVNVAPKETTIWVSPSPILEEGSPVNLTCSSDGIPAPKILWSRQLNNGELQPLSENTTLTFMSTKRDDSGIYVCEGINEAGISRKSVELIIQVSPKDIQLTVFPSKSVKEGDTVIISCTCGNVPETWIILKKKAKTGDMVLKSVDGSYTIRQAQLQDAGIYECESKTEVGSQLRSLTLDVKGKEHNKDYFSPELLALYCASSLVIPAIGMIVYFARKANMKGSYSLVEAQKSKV
# [5] = target: integrin VLA-4 expressed on 5TGM1 murine myeloma cells (murine) (UniProt Q00651); assay: cell-based or functional assay
# Sequence of integrin VLA-4 expressed on 5TGM1 murine myeloma cells (murine) (Q00651 41-1039, chain 1 of 2): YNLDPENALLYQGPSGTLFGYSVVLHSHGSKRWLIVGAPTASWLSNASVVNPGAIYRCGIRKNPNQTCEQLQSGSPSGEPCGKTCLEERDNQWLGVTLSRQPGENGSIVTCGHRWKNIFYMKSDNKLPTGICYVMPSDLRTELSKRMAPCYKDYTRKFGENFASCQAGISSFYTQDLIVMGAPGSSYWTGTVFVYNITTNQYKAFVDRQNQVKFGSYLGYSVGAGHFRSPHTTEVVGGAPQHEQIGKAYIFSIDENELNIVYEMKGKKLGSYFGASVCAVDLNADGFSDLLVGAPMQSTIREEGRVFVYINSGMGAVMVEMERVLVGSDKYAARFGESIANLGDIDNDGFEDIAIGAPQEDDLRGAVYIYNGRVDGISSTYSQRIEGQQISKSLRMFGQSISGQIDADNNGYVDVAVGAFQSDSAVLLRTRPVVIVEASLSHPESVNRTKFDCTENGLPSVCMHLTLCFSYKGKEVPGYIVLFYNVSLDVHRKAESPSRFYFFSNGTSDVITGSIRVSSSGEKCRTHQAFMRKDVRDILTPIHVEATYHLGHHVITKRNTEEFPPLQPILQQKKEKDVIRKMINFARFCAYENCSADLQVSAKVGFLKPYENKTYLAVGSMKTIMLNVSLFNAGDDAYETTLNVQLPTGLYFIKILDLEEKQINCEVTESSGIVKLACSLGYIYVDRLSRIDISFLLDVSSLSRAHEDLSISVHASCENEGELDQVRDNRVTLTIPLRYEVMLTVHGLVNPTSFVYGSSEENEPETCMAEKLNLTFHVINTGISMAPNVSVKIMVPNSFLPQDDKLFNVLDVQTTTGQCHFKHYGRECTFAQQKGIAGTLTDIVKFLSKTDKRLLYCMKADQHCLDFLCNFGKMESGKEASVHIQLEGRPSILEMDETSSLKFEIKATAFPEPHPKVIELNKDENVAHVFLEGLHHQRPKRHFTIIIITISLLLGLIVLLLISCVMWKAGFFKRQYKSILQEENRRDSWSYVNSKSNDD
# Sequence of integrin VLA-4 expressed on 5TGM1 murine myeloma cells (murine) (P09055 21-798, chain 2 of 2, further chain): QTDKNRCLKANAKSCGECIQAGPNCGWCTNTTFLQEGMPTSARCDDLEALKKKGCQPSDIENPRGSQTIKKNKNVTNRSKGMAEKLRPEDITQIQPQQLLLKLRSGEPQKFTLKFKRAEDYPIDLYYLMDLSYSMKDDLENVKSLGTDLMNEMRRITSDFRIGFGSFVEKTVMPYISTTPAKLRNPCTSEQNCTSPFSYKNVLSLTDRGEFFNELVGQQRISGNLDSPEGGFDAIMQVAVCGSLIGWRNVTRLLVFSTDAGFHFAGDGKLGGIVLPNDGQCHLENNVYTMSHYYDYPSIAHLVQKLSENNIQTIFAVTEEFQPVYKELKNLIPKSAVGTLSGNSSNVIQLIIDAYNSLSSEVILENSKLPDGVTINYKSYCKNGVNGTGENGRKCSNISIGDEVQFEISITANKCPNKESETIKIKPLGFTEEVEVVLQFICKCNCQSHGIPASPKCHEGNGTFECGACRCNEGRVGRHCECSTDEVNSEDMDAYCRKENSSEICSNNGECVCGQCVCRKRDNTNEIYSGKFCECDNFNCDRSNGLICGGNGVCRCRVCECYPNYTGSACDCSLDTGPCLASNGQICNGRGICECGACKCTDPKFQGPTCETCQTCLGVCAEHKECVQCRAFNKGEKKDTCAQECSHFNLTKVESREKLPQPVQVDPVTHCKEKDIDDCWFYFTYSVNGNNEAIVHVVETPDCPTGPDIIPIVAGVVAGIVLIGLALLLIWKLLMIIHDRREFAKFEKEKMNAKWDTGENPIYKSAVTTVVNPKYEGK
# [6] = system: 45Ca-labeled fetal rat long bones; assay: Bone resorption in organ cultures of 45Ca-labeled fetal rat long bones; type: cell-based
# Procedure: Conditioned media harvested from 5TGM1 cultures were assayed for bone-resorbing activity by organ cultures of 45Ca-labeled fetal rat long bones as described previously (Mbalaviele 1995). Pregnant rats were injected with 250 uCi of 45Ca (New England Nuclear) on the 18th day of gestation. Radius and ulna bone shafts were obtained from 19-day fetuses by microdissection, and precultured for 24 h in BGJ medium (Sigma) supplemented with 0.1% BSA between air and liquid-phase on stainless mesh grids. Bones were then cultured in the presence of conditioned media (50% v/v) or in control medium for 120 hours. The media were changed once at 48 hours. At the end of the culture, bones were incubated in ice-cold 5% trichloroacetic acid for 2 h, and 45Ca radioactivity in bones and media determined in a liquid scintillation counter. Bone resorption was quantitated as the percentage of 45Ca released into the medium from bones as calculated by: (45Ca count in medium)/(45Ca count in medium and bone)×100.
# 5TGM1 cells = assay: Osteoclastogenic activity of conditioned medium of sVCAM-1-treated 5TGM1 cells in mouse marrow cultures; type: cell-based; conditions: 6 days, 1×10^−7 M sVCAM-1
# Procedure: Conditioned medium was harvested from 5TGM1 cells cultured in the presence or absence of sVCAM-1 (1×10^−8 to 1×10^−7 Molar) for 24 hours. Osteoclastogenic activity of these conditioned media was assayed in the mouse marrow cultures. Bone marrow cells (1e6/well) were plated into 48-well plates, and cultured in the presence of conditioned media (hatched bars) or control medium (IMDM) containing the same concentrations of sVCAM-1 (open bars). After 6 days, cultures were fixed and the number of TRAP-positive multinucleated OC-like cells (TRAP+MNC) was determined.
# Rank ligand mRNA = assay: Expression of Rank ligand mRNA in 5TGM1 and ST2 cells; type: cell-based, mouse
# Source text: Because Rank ligand appears to be an important mediator of OCL formation and may be the final common pathway for the effects of osteoclastogenic cytokines on OCL formation, we have examined the expression of Rank ligand in 5TGM1 and ST2 cells both individually and when cocultured. We find that coculture of 5TGM1 and ST2 cells induces Rank ligand mRNA in the ST2 cells.
molecule,measurement,setting,value
N[C@@H](Cc1ccc(N(CCCl)CCCl)cc1)C(=O)O [melphalan],serum IgG2 levels,[1]; melphalan alone 200 μg/mouse,significantly suppressed
same,serum IgG2 levels,[1]; melphalan alone 50 and 100 μg/mouse i.p. once a week,failed to suppress serum IgG2 levels
same,serum IgG2b levels,5TGM1 myeloma cells [2],only modestly affected
same,onset of hindleg paralysis,5TGM1 myeloma cells [3]; melphalan 100 μg/mouse and/or anti-α4Ab,had no effect on the onset of hindleg paralysis
same,onset of hindleg paralysis,5TGM1 myeloma cells [3]; melphalan alone 200 μg/mouse,significantly delayed the onset
same,mIgG2b plasma levels,GFP+ 5TGM1 myeloma cells,unaffected
same,percentage of GFP+ myeloma cells in blood,GFP+ 5TGM1 myeloma cells,unaffected
same,percentage of GFP+ myeloma cells in bone marrow,GFP+ 5TGM1 myeloma cells,Neither melphalan nor PS/2 mAb alone affected
same,percentage of GFP+ myeloma cells in spleen,GFP+ 5TGM1 myeloma cells,unaffected
Arg-Cys-Asp-TPro-Cys,inhibition of VLA-4 and VLA-5 adhesion to fibronectin,VLA-4 and VLA-5,can inhibit both VLA-4 and VLA-5 adhesion to fibronectin
Glu-Ile-Leu-Asp-Val (EILDV) [pentapeptide of the fibronectin CS-1 region],inhibitory activity against fibronectin-dependent cell adhesion,VLA-4,possessed inhibitory activity against fibronectin-dependent cell adhesion
Leu-Asp-Val-Pro-Ser (LDVPS) [pentapeptide of the fibronectin CS-1 region],inhibitory activity against fibronectin-dependent cell adhesion,VLA-4,possessed inhibitory activity against fibronectin-dependent cell adhesion
mAb M/K-2.7 to murine VCAM-1 (antibody),attachment of 5TGM1 cells to ST2 monolayers,[4],50 to 80%
mAb PS/2 to VLA-4 (antibody),attachment of 5TGM1 cells to ST2 monolayers,[5],50 to 80%
sVCAM-1: recombinant soluble VCAM-1 containing the 7 extracellular domains of human VCAM-1 (protein) FKIETTPESRYLAQIGDSVSLTCSTTGCESPFFSWRTQIDSPLNGKVTNEGTTSTLTMNPVSFGNEHSYLCTATCESRKLEKGIQVEIYSFPKDPEIHLSGPLEAGKPITVKCSVADVYPFDRLEIDLLKGDHLMKSQEFLEDADRKSLETKSLEVTFTPVIEDIGKVLVCRAKLHIDEMDSVPTVRQAVKELQVYISPKNTVISVNPSTKLQEGGSVTMTCSSEGLPAPEIFWSKKLDNGNLQHLSGNATLTLIAMRMEDSGIYVCEGVNLIGKNRKEVELIVQEKPFTVEISPGPRIAAQIGDSVMLTCSVMGCESPSFSWRTQIDSPLSGKVRSEGTNSTLTLSPVSFENEHSYLCTVTCGHKKLEKGIQVELYSFPRDPEIEMSGGLVNGSSVTVSCKVPSVYPLDRLEIELLKGETILENIEFLEDTDMKSLENKSLEMTFIPTIEDTGKALVCQAKLHIDDMEFEPKQRQSTQTLYVNVAPRDTTVLVSPSSILEEGSSVNMTCLSQGFPAPKILWSRQLPNGELQPLSENATLTLISTKMEDSGVYLCEGINQAGRSRKEVELIIQVTPKDIKLTAFPSESVKEGDTVIISCTCGNVPETWIILKKKAETGDTVLKSIDGAYTIRKAQLKDAGVYECESKNKVGSQLRSLTLDVQGRENNKDYFSPE,bone resorption by conditioned medium of 5TGM1 treated with sVCAM-1,[6],increased bone resorption in fetal rat long bones in a dose-dependent manner
same,"bone resorption, soluble VCAM-1 itself",[6],had no effects on bone resorption
same,OC-like cell (TRAP(+)MNC) formation by conditioned medium from 5TGM1 cells treated with sVCAM-1,5TGM1 cells,showed increased activity of OC-like cell formation; also recorded: increased TRAP(+)MNC formation
same,Rank ligand expression in 5TGM1 cells,Rank ligand mRNA; 5TGM1 cells treated with sVCAM-1,they do so when treated with sVCAM-1
same,Rank ligand mRNA in ST2 cells,Rank ligand mRNA; conditioned medium from 5TGM1 cells treated with sVCAM-1,induced Rank ligand mRNA in ST2 cells
